Source: ChEMBL document CHEMBL1201862, “PubChem BioAssay data set” (2004)
The source made the active and inactive calls.

Assays:
[1] = Shn3 3'UTR reporter inhibitors, dose response, cell-based, Clone20 osteoblasts, firefly luciferase, cherry-picked (AID 624132); type: functional;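 note: firefly luciferase luminescence from reporter carrying the Shn3 3'UTR in osteoblasts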
[2] = control 3'UTR Renilla luciferase suppression, dose response, counter-screen for Shn3 inhibitor project, cell-based, Clone20-Shn3RL, cherry-picked (AID 624133); type: functional
Protein Wnt-3a = Protein Wnt-3a (Mus musculus, UniProt P27467); test: Wnt3a-driven reporter signaling inhibition, dose response, selectivity assay for Gli-SUFU antagonist project, Wnt-LIGHT cells, luminescence (AID 651570); type: functional; conditions: read-out: IC50_Mean;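 note: Wnt-LIGHT reporter cells stimulated with conditioned medium from Wnt3a-producing cells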
Sequence of Protein Wnt-3a (P27467 whole entry): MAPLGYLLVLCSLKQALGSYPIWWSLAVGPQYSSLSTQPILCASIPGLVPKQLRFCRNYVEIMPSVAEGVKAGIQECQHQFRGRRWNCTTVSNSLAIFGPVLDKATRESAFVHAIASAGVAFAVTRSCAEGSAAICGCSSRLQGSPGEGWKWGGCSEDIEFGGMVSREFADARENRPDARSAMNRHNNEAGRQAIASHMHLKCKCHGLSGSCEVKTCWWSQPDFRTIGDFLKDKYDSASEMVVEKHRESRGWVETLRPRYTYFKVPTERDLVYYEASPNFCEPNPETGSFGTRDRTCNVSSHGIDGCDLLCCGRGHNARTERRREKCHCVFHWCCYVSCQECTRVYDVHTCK

INS1 = test: beta cell apoptosis inhibitors, cytokine rescue, dose response, luminescence, retest (AID 449756); type: functional, cell-based; conditions: Rattus norvegicus;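 note: cell death triggered by IL-1 beta plus TNF-alpha plus IFN-gamma mixture; protective hits raise ATP signal compared with cytokine alone wells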
[3] = HepG2 cell cytotoxicity, dose response, cytotoxicity control for Shn3 inhibitor project, CellTiter-Glo, cherry-picked (AID 624134); type: functional, cell-based
Vero = Vero cell cytotoxicity, cytotoxicity control for flavivirus capping enzyme inhibitors (AID 588742); type: functional; conditions: Chlorocebus sabaeus
[4] = inhibitors of clade B AD8 Env fusion, dose response, cell-based, cherry-pick (AID 652062); type: functional;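 note: luciferase signal from cell-cell fusion driven by HIV-1 clade B AD8 Env; potency is for inhibitors of fusion seen as a drop in luminescence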
Fatty acid synthase [5] = target: T1, Fatty acid synthase (Homo sapiens, UniProt P49327); test: FAS thioesterase domain inhibitors, dose response, biochemical, endpoint fluorescence intensity, uHTS hits (AID 624327); type: functional;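 note: fluorescence from hydrolysis of an O-methyl fluorescein acyl ester substrate by the enzyme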
T1 sequence (P49327 whole entry, the tested form may be a part): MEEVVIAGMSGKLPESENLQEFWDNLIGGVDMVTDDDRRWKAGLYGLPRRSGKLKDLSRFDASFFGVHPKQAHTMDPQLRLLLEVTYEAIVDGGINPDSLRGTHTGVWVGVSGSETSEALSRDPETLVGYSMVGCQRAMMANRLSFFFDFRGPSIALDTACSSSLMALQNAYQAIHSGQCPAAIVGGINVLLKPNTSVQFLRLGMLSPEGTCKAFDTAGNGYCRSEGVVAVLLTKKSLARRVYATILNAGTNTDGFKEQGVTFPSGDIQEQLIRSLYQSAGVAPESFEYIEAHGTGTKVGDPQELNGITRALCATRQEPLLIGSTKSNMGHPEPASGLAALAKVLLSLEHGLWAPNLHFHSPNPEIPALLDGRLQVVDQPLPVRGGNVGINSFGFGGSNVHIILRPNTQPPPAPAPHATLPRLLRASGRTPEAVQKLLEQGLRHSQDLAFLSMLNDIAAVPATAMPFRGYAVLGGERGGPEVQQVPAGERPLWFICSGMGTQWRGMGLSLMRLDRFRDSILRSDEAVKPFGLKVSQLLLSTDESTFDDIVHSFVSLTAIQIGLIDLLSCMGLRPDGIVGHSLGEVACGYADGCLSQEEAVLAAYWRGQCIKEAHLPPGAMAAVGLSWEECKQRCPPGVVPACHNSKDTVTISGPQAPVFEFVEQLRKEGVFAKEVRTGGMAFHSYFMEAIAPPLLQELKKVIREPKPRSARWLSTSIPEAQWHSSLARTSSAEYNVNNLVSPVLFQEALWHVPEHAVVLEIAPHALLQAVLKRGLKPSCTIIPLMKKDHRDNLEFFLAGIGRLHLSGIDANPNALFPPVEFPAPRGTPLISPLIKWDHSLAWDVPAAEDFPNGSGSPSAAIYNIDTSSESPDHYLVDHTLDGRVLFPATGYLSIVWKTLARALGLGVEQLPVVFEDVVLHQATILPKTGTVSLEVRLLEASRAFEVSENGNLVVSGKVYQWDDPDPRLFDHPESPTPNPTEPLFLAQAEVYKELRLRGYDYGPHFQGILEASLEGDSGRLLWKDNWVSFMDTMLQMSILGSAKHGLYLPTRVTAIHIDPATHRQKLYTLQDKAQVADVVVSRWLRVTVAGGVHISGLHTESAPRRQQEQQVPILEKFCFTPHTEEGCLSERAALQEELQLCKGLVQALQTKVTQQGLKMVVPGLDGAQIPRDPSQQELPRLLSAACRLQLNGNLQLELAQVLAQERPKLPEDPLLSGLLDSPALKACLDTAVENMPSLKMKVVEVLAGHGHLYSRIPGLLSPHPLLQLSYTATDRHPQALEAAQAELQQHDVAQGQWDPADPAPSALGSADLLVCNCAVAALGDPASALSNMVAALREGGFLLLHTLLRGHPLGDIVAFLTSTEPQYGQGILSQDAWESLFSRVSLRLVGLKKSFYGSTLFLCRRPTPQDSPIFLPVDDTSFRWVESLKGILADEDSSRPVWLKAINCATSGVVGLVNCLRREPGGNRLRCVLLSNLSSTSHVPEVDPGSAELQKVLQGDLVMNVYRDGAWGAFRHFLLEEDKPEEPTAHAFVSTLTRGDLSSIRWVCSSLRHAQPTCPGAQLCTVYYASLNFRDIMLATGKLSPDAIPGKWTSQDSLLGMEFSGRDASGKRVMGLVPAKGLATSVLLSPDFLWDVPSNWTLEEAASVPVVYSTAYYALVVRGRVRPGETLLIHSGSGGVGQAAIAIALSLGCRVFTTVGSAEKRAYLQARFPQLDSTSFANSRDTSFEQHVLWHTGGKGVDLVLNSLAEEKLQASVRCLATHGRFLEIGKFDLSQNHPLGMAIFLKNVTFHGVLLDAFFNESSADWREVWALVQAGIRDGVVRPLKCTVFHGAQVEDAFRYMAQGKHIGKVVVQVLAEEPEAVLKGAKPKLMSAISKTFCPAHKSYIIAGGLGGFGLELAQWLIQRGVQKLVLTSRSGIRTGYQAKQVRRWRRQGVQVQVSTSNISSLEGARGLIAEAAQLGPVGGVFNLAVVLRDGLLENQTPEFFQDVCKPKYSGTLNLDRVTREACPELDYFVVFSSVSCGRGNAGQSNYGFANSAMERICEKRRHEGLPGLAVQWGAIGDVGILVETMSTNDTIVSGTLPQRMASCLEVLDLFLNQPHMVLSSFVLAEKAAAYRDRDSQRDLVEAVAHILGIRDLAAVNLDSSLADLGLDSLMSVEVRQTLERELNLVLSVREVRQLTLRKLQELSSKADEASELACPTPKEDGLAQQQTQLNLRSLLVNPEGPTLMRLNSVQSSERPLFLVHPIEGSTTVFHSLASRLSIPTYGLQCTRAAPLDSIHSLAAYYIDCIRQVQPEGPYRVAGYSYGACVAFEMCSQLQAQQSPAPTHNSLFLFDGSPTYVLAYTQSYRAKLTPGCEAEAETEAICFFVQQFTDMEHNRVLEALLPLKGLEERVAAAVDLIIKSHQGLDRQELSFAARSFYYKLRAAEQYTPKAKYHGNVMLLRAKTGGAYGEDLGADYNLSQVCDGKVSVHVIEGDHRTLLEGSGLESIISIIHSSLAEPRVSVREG

Fatty acid synthase [6] = target: T1, Fatty acid synthase; test: FAS thioesterase domain inhibitors, dose response, biochemical, kinetic fluorescence intensity (AID 624326); type: functional;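 note: rate of fluorescence rise from hydrolysis of a fluorogenic O-methyl fluorescein ester substrate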
P388 = test: cells; type: functional; conditions: Mus musculus
SN12K1 = test: cells; type: functional; conditions: Homo sapiens
P388/ADR = test: cells; type: functional; conditions: Mus musculus
[7] = microbe, parasite or virus in culture; type: functional; conditions: Mycobacterium tuberculosis
[8] = Vero E6 cell cytotoxicity, dose response, cytotoxicity control for non-replicating M. tuberculosis project, secondary assay (AID 492998); type: functional, VeroE6; conditions: Vero C1008
[9] = THP-1 cell cytotoxicity, dose response, cytotoxicity control for non-replicating M. tuberculosis project (AID 489025); type: functional
[10] = HepG2 cell cytotoxicity, dose response, cytotoxicity control for non-replicating M. tuberculosis project (AID 489018); type: functional; conditions: Mycobacterium tuberculosis
cells = type: functional
[11] = ZM109 Env clade C HIV-1 fusion inhibitors, dose response, HeLa effector, CEM target cells, luciferase, cherry-pick (AID 652058); type: functional, cell-based
[12] = off-target signal loss in HeLa-CEM21 co-culture – HeLa F-luc CTL cells, cherry-picked, counter-screen for HIV-1 Env fusion inhibitor project, dose response (AID 652040); type: functional, cell-based;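 note: potency for signal decrease marking cytotoxic or nonspecific inhibition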
[13] = inhibitors of HIV Env-driven cell fusion, dose response, cherry-pick (AID 652057); type: functional, cell-based

With `Cc1c(C(C)C)c(=O)n(-c2ccc(S(=O)(=O)NCc3ccccc3)cc2)n1C` the AC50 [1] was 1.18 µM (active), the AC50 [2] was 1.96 µM (active) and the IC50 (Protein Wnt-3a) was 5.02 µM (active). The AC50 (INS1) was 2.71 µM (active) and the AC50 [3] was 2.48 µM (active).
For `Cc1ccc(/C=C/c2nc3ccccc3[nH]2)o1`, the CC50 (Vero) was > 40 µM (active).
With `O=C(Cc1ccc(Cl)cc1Cl)Nc1ccncc1` the AC50 [1] was 2.56 µM (active), the AC50 [4] was 9.95 µM (active) and the AC50 [2] was 6.34 µM (active). The IC50 (Protein Wnt-3a) was 3.6 µM (active) and the AC50 [3] was 42.9 µM (active).
With `Cn1c(=O)c2c(nc(NCCOc3ccc(C(C)(C)C)cc3)n2C)n(C)c1=O` the IC50 (Protein Wnt-3a) was 1.2 µM (active).
For `O=[N+]([O-])c1ccc(C(O)C(CO)N=C(S)Nc2ccccc2)cc1` (stereo unspecified), the IC50 (Fatty acid synthase [5]) was 20.8 µM (inactive) and the IC50 (Fatty acid synthase [6]) was 24.8 µM (inactive).
In the case of `COC(=O)NC1C(C)OC(OC2C/C=C(/C)C3C=CC4C(OC5CC(OC6CC(O)C(OC7CC(O)C(OC)C(C)O7)C(C)O6)C(O)C(C)O5)C(C)CC(C)C4C3(C)C(=O)C3=C(O)C4(CC(C)C(CO)=CC4/C=C\2C)OC3=O)CC1(C)[N+](=O)[O-]` (stereo unspecified), the GI50 (P388) is reported as 3.55 µM (inactive), the GI50 (SN12K1) is reported as 6.21 µM (inactive) and the GI50 (P388/ADR) is reported as 5.56 µM (inactive).
In the case of `O=C(NC(Cc1ccc(Br)cc1)C(=O)O)c1ccc(I)cc1` (stereo unspecified), the GI50 (P388) is reported as > 80.9 µM (inactive), the GI50 (SN12K1) is reported as > 100 µM (inactive) and the GI50 (P388/ADR) is reported as > 66.1 µM (inactive).
In the case of `Nc1nc(N)c2cc(CNc3ccc(C(=O)NC(CC(=O)O)C(=O)O)c(Cl)c3)ccc2n1` (stereo unspecified), the GI50 (P388) is reported as < 0.01 µM (active), the GI50 (SN12K1) is reported as 0.014 µM (active) and the GI50 (P388/ADR) is reported as < 0.01 µM (active).
For `S=P1(Sc2ccccc2)Oc2ccc3ccccc3c2-c2c(ccc3ccccc23)O1`, the GI50 (P388) was > 100 µM (inactive), the GI50 (SN12K1) was > 100 µM (inactive) and the GI50 (P388/ADR) was > 100 µM (inactive).
With `O=NN(CCCl)C(=O)N[C@H]1CC[C@H](CC(=O)O)CC1` the GI50 (P388) was 3.73 µM (inactive), the GI50 (SN12K1) was 69 µM (inactive) and the GI50 (P388/ADR) was 3.97 µM (inactive).
In the case of `O=S(=O)(O)c1cc(S(=O)(=O)O)c2cc(/N=N/c3ccc(/N=N/c4ccc(/C=C/c5ccc(/N=[N+](/[O-])c6ccc(/C=C/c7ccc(/N=N/c8ccc(/N=N/c9ccc%10cc(S(=O)(=O)O)cc(S(=O)(=O)O)c%10c9)cc8)cc7S(=O)(=O)O)c(S(=O)(=O)O)c6)cc5S(=O)(=O)O)c(S(=O)(=O)O)c4)cc3)ccc2c1`, the GI50 (P388) is reported as 14.7 µM (inactive) and the GI50 (SN12K1) is reported as > 95.1 µM (inactive).
For `C/C(=N\NC(=O)c1cc2ccccc2cc1O)c1ccc(C)o1`, the CC50 [7] was 22.7 µM (active), the CC50 [8] was 16 µM (active) and the CC50 [9] was 21.9 µM (active). The CC50 (Vero) was 32 µM (active), the CC50 [10] was > 20 µM (active) and the IC50 (cells) was 6.26 µM (active).
For `CC1(C(=O)N/N=C/c2cc3c(cc2Br)OCO3)CC1(Br)Br` (stereo unspecified), the AC50 [11] was 2.59 µM (active), the AC50 [4] was 15.2 µM (active) and the AC50 [12] was 9.4 µM (active). The AC50 [13] was 3.9 µM (active).
